From ChEMBL document CHEMBL1126224, “Synthesis and biological activity of 4-(diphenylmethyl)-alpha-[(4-quinolinyloxy)methyl]-1-piperazineethanol and related compounds” (J Med Chem, 1992) come the findings set out here.

Molecules are shown by their SMILES. The source made the active and inactive calls. The calls are words filed in the database; no cut-off is given here. Where only a bound is given, the exact number is not on record here.

The species entered for experiment [1] is Rattus norvegicus. The experiment in a line: The compound was tested for its cardiovascular activity in rat heart model. producing a 25% increase (EC25) in LV dP/dtmax (measure of contractility); N = not active. Type of experiment: functional, organism-based.
The species named for experiment [2] is Rattus norvegicus. The experiment in a line: (§1) The compound was tested for its cardiovascular activity in rat heart model. producing a 25% increase (EC25) in CF(coronary flow); N = not active. Type of experiment: functional, organism-based.
Experiment [3] deals with Canis familiaris. The experiment is described as follows: Mean blood pressure was tested in anesthetized dogs. for a dose of 1.0 mg/kg. Type of experiment: functional, Canis lupus familiaris.
For experiment [4], the system named is Canis familiaris. The experiment in a line: The compound was tested for its cardiovascular activity expressed as heart rate in beat/min in anesthetized dogs for a dose of 0.1 mg/kg. The experiment is classed as functional, Canis lupus familiaris.
The subject of experiment [5] is Canis familiaris. The experiment in a line: Total peripheral resistance was tested in anesthetized dogs for a dose of 0.1 mg/kg. Type of experiment: functional, Canis lupus familiaris.
For another experiment, the species on record is Oryctolagus cuniculus. The experiment in a line: Calcium channel blocking activity in rabbit aortic rings. The experiment is classed as functional. The settings on record: Aorta.
Experiment [6] deals with Canis familiaris. The experiment in a line: The compound was tested for its cardiovascular activity expressed as heart rate in beat/min in anesthetized dogs for a dose of 1.0 mg/kg. Type of experiment: functional, Canis lupus familiaris.
Experiment [7] concerns Canis familiaris. The experiment is described as follows: The compound was tested for its cardiovascular activity in anesthetized dogs producing a 25% increase (EC25) in LV dP/dtmax (measure of contractility) for a dose of 0.3 mg/kg. Type of experiment: functional, Canis lupus familiaris, Heart.
The species entered for experiment [8] is Rattus norvegicus. The experiment is described as follows: The compound was tested for its cardiovascular activity in rat heart model. producing a 50% increase (EC50) in CF(coronary flow). Type of experiment: functional, organism-based.
The subject of experiment [9] is Canis familiaris. The experiment is described as follows: Mean blood pressure was tested in anesthetized dogs. for a dose of 0.3 mg/kg. The experiment is classed as functional, Canis lupus familiaris.
Experiment [10] is filed under the species Rattus norvegicus. The experiment in a line: The compound was tested for its cardiovascular activity in rat heart model. producing a 25% increase (EC25) in CF(coronary flow). The experiment is classed as functional.
The species named for experiment [11] is Rattus norvegicus. The experiment in a line: The compound was tested for its cardiovascular activity in rat heart model. producing a 50% increase (EC50) in LV dP/dtmax (measure of contractility). The experiment is classed as functional, organism-based.
In experiment [12] the test system is Canis familiaris. The experiment is described as follows: The compound was tested for its cardiovascular activity in anesthetized dogs producing a 25% increase (EC25) in LV dP/dtmax (measure of contractility) for a dose of 1.0 mg/kg. Type of experiment: functional, Canis lupus familiaris, Heart.
For experiment [13], the system named is Canis familiaris. The experiment in a line: The compound was tested for its cardiovascular activity expressed as heart rate in beat/min in anesthetized dogs for a dose of 0.3 mg/kg. The experiment is classed as functional, Canis lupus familiaris.
In experiment [14] the test system is Canis familiaris. The experiment in a line: The compound was tested for its cardiovascular activity in anesthetized dogs producing a 25% increase (EC25) in LV dP/dtmax (measure of contractility) for a dose of 0.1 mg/kg. The experiment is classed as functional, Canis lupus familiaris, Heart.
For experiment [15], the system named is Canis familiaris. The experiment in a line: Total peripheral resistance was tested in anesthetized dogs for a dose of 0.3 mg/kg. The experiment is classed as functional, Canis lupus familiaris.
Experiment [16] deals with Canis familiaris. The experiment in a line: Total peripheral resistance was tested in anesthetized dogs for a dose of 1.0 mg/kg. The experiment is classed as functional, Canis lupus familiaris.
For experiment [17], the species on record is Rattus norvegicus. The experiment in a line: The compound was tested for its cardiovascular activity in rat heart model. producing a 25% increase (EC25) in LV dP/dtmax (measure of contractility). The experiment is classed as functional.
For the next experiment, the species on record is Cavia porcellus. The experiment is described as follows: Coronary flow activity in Langendorff perfused guinea pig heart. The experiment is classed as functional.
Experiment [18] deals with Canis familiaris. The experiment is described as follows: Mean blood pressure was tested in anesthetized dogs. for a dose of 0.1 mg/kg. The experiment is classed as functional, Canis lupus familiaris.
The species named for experiment [19] is Rattus norvegicus. The experiment is described as §1. The experiment is classed as functional, organism-based. This is another data set of the same source.
The test system of experiment [20] is Canis familiaris. The experiment is described as follows: The compound was tested for its cardiovascular activity expressed as heart rate in beat/min in anesthetized dogs for a dose of 0.01 mg/kg. The experiment is classed as functional, Canis lupus familiaris.
Experiment [21] deals with Canis familiaris. The experiment in a line: Total peripheral resistance was tested in anesthetized dogs for a dose of 0.01 mg/kg. The experiment is classed as functional, Canis lupus familiaris.
For experiment [22], the system named is Canis familiaris. The experiment is described as follows: The compound was tested for its cardiovascular activity in anesthetized dogs producing a 25% increase (EC25) in LV dP/dtmax (measure of contractility) for a dose of 0.01 mg/kg. Type of experiment: functional, Canis lupus familiaris, Heart.
The species entered for experiment [23] is Rattus norvegicus. The experiment is described as follows: The compound was tested for its cardiovascular activity in rat heart model. producing a 25% increase (EC50) in CF(coronary flow); NA = not achieved. The experiment is classed as functional, organism-based.
Experiment [24] deals with Canis familiaris. The experiment in a line: Mean blood pressure was tested in anesthetized dogs. for a dose of 0.01 mg/kg. Type of experiment: functional, Canis lupus familiaris.
For experiment [25], the species on record is Rattus norvegicus. The experiment is described as follows: The compound was tested for its cardiovascular activity in rat heart model. producing a 50% increase (EC50) in LV dP/dtmax (measure of contractility); NA = not achieved. The experiment is classed as functional, organism-based.
The species entered for experiment [26] is Rattus norvegicus. The experiment is described as follows: The compound was tested for its cardiovascular activity in rat heart model. producing a 25% increase (EC25) in LV dP/dtmax (measure of contractility); NA = not achieved. The experiment is classed as functional, organism-based.

`Cc1cc(OCC(O)CN2CCc3ccccc3C2)c2ccccc2n1` (configuration not stated): the EC25 – broadly, the concentration at which the effect reaches the 25% level – in the experiment filed under Rattus norvegicus [1] was “inactive”. In addition, in the experiment listed under Rattus norvegicus [2], the EC50 entry is “Not Active”.

In the case of `N#Cc1cc2c(OCC(O)CN3CCN(C(c4ccccc4)c4ccccc4)CC3)cccc2o1` (configuration not stated), the Mean blood pressure is given as -14.5 mmHg in the experiment with Canis familiaris [3], -7.3 mmHg in the experiment with Canis familiaris [9] and -0.66 mmHg in the experiment with Canis familiaris [18]. Besides, the Heart rate in the experiment with Canis familiaris [4] is on record as 0 beats min-1; in the experiment with Canis familiaris [6], -3.33 beats min-1; with Canis familiaris [13], -1.66 beats min-1. Moreover, the Total peripheral resistance is -0.66 mmHg·min/mL in the experiment on Canis familiaris [5], -8.66 mmHg·min/mL with Canis familiaris [15] and -21.7 mmHg·min/mL with Canis familiaris [16]. Besides, the EC25 is greater than 100000 nM in the experiment filed under Oryctolagus cuniculus, 100 nM in the experiment filed under Rattus norvegicus [10], 100 nM in the experiment filed under Rattus norvegicus [17] and 2250 nM in the experiment listed under Cavia porcellus. Also, the Contractility came to 9.3 mmHg s-1 with Canis familiaris [7], 30.3 mmHg s-1 with Canis familiaris [12] and 2 mmHg s-1 in the experiment with Canis familiaris [14]. Also, the EC50 came to 3000 nM in the experiment filed under Rattus norvegicus [8] and 420 nM in the experiment listed under Rattus norvegicus [11].

With `OC(COc1cccc2cnccc12)CN1CCN(C(c2ccccc2)c2ccccc2)CC1` (configuration not stated), the EC25 result in the experiment filed under Rattus norvegicus [1] is “inactive”. The molecule further yielded an EC50 in the experiment filed under Rattus norvegicus [8] of 1500 nM. This molecule registered an EC25 in the experiment listed under Rattus norvegicus [10] of 200 nM.

For `Cl.OC(COc1ccc2ncccc2c1)CN1CCN(C(c2ccccc2)c2ccccc2)CC1` (configuration not stated), in the experiment filed under Rattus norvegicus [19], the EC25 result is “inactive”. The same molecule came in with an EC50 in the experiment filed under Rattus norvegicus [11] of 800 nM. The molecule also came in with an EC25 in the experiment filed under Rattus norvegicus [17] of 480 nM.

As for `Cc1cc(OCC(O)CN2CCN(C(c3ccccc3)c3ccccc3)CC2)c2ccccc2n1.Cl.O` (configuration not stated), the EC25 in the experiment listed under Rattus norvegicus [10] turned out to be 800 nM.

As for `Oc1nccc2c(OCC(O)CN3CCN(C(c4ccccc4)c4ccccc4)CC3)cccc12` (configuration not stated), the EC25 in the experiment listed under Rattus norvegicus [10] is 150 nM.

As to `OC(COc1ccnc2ccccc12)CN1CCN(C(c2ccccc2)c2ccccc2)CC1` (configuration not stated), the Mean blood pressure in the experiment on Canis familiaris [3] came to 3 mmHg; with Canis familiaris [9], 4.5 mmHg; with Canis familiaris [18] it was 3 mmHg. Also, the Heart rate with Canis familiaris [4] is on record as -2 beats min-1; with Canis familiaris [6] it was -2.6 beats min-1; with Canis familiaris [13] it was -3.5 beats min-1. For the same molecule, the EC25 entry in the experiment listed under Rattus norvegicus [19] is “inactive”. Moreover, the Total peripheral resistance was 3 mmHg·min/mL in the experiment on Canis familiaris [5], 6.5 mmHg·min/mL with Canis familiaris [15] and -17 mmHg·min/mL in the experiment on Canis familiaris [16]. Further, the EC25 in the experiment filed under Oryctolagus cuniculus is greater than 100000 nM; in the experiment filed under Rattus norvegicus [17], 140 nM; in the experiment listed under Cavia porcellus it was 900 nM. For the same molecule, the Contractility in the experiment on Canis familiaris [7] turned out to be 40 mmHg s-1; in the experiment with Canis familiaris [12], 115.5 mmHg s-1; in the experiment with Canis familiaris [14] it was 12 mmHg s-1. The EC50 in the experiment filed under Rattus norvegicus [11] was 320 nM.

For `N#Cc1cc2c(OCC(O)CN3CCN(C(c4ccccc4)c4ccccc4)CC3)cccc2[nH]1` (configuration not stated), the results for the Mean blood pressure in the experiment with Canis familiaris [3], with Canis familiaris [18] and in the experiment with Canis familiaris [24] were -21 mmHg, 2.3 mmHg and 4.3 mmHg, respectively. Further, the Heart rate in the experiment on Canis familiaris [4] is -0.66 beats min-1; with Canis familiaris [20] it was 0.66 beats min-1; with Canis familiaris [6], -1 beats min-1. Further, the results for the Total peripheral resistance with Canis familiaris [5], with Canis familiaris [21] and in the experiment on Canis familiaris [16] were -17.3 mmHg·min/mL, -9.6 mmHg·min/mL and -24.5 mmHg·min/mL, respectively. The EC25 is greater than 100000 nM in the experiment listed under Oryctolagus cuniculus, 300 nM in the experiment filed under Rattus norvegicus [10], 20 nM in the experiment listed under Rattus norvegicus [17] and 280 nM in the experiment filed under Cavia porcellus. Also, the Contractility in the experiment on Canis familiaris [22] stood at 9 mmHg s-1; with Canis familiaris [12] it was 83.3 mmHg s-1; in the experiment on Canis familiaris [14], 21.3 mmHg s-1. Also, the EC50 entry in the experiment listed under Rattus norvegicus [23] is “Not Active”; in the experiment filed under Rattus norvegicus [11], 35 nM.

Turning to `CCOC(=N)c1cc2c(OCC(O)CN3CCN(C(c4ccccc4)c4ccccc4)CC3)cccc2o1` (configuration not stated), the EC25 entry in the experiment filed under Rattus norvegicus [1] is “inactive”. The molecule also yielded an EC25 in the experiment filed under Rattus norvegicus [10] of 1000 nM.

Turning to `OC(COc1ccc2cccnc2c1)CN1CCN(C(c2ccccc2)c2ccccc2)CC1` (configuration not stated), the EC50 is 1010 nM in the experiment filed under Rattus norvegicus [8] and “Not Active” in the experiment filed under Rattus norvegicus [25]. Moreover, the EC25 in the experiment filed under Rattus norvegicus [10] amounted to 160 nM; in the experiment filed under Rattus norvegicus [17] it was 700 nM.

The molecule `OC(COc1cccc2ncccc12)CN1CCN(C(c2ccccc2)c2ccccc2)CC1` (configuration not stated) returned an EC50 in the experiment listed under Rattus norvegicus [8] of 2000 nM. In the experiment listed under Rattus norvegicus [10], this molecule returned an EC25 of 800 nM. For the same molecule, the EC25 result in the experiment filed under Rattus norvegicus [26] was “inactive”.

On to `Cc1cc(OCC(O)Cn2cnc3ccccc32)c2ccccc2n1` (configuration not stated), for which the EC25 result in the experiment listed under Rattus norvegicus [1] is “inactive”. The EC50 result in the experiment filed under Rattus norvegicus [2] is given as “Not Active”.

For the molecule `OC(COc1cccc2cnccc12)CN1CCN(c2ccccc2SCc2ccccc2)CC1` (configuration not stated), in the experiment listed under Rattus norvegicus [1], the EC25 result was “inactive”. This molecule registered an EC25 in the experiment filed under Rattus norvegicus [10] of 1000 nM.

With `OC(COc1ccnc2cc(C(F)(F)F)ccc12)CN1CCN(C(c2ccccc2)c2ccccc2)CC1` (configuration not stated), the EC25 entry in the experiment filed under Rattus norvegicus [1] was “inactive”. The same molecule showed an EC50 in the experiment filed under Rattus norvegicus [8] of 400 nM. Further, the EC25 in the experiment listed under Rattus norvegicus [10] stood at 200 nM.

As for `OC(COc1cccc2[nH]ccc12)CN1CCN(C(c2ccccc2)c2ccccc2)CC1` (configuration not stated), the EC25 result in the experiment filed under Rattus norvegicus [1] is “inactive”. For the same molecule, in the experiment filed under Rattus norvegicus [8], the EC50 worked out at 2500 nM. In the experiment filed under Rattus norvegicus [10], this molecule came in with an EC25 of 120 nM.
